Read-outs that look alike come from different tables or passages of the source.
How the values were obtained:
U87 cells = experiment: Cell viability, Alamar Blue, 7-day incubation, U87; format: cell-based; conditions: Homo sapiens, U-87 MG, 168 h, MGMT −, error SEM
Description: (§1) Anticancer activity of C8 substituted imidazotetrazines. With a suite of imidazotetrazines in hand, each compound was evaluated against a panel of human GBM cell lines (Table 1a, Table 1b).

D54 cells = experiment: Cell viability, Alamar Blue, 7-day incubation, D54; format: cell-based; conditions: Homo sapiens, D54, 168 h, MGMT −, error SEM
Description: as §1

T98G cells [1] = experiment: Cell viability, Alamar Blue, 7-day incubation, T98G; format: cell-based; conditions: Homo sapiens, 168 h, MGMT +, error SEM
Description: as §1

[2] = system: GBM Br23c oncospheres intracranially implanted; experiment: Intracranial mouse model of GBM (Br23c oncospheres); format: in vivo; conditions: oral gavage, 15 mg/kg TMZ or equimolar dose
Text: FIG. 5. Evaluation of imidazotetrazines in intracranial mouse models of GBM. GBM Br23c oncospheres were intracranially implanted into female athymic nude mice. Treatment was started 5 days post implantation. […] Compounds were formulated in 10% PEG in PBS immediately prior to each treatment. Number of mice per treatment cohort≥5. Survival curves were compared using log-rank test.
in vivo Efficacy Models. Human GBM Br23c stem-like neurosphere cells were intracranially implanted in female athymic nude mice (150,000 cells/mouse). […] Mice were observed daily for any signs of deterioration, neurotoxicity, or movement disorders. They were inspected for signs of pain and distress, as in accordance with the Johns Hopkins Animal Care and Use Guidelines.

physchem = conditions: buffered saline (PBS), pH 7.4
Description: Hydrolytic stability of C8 substituted imidazotetrazines. […] A HPLC assay was developed to quantify the fraction of intact prodrug remaining in solution after 2 hours at pH 7.4, 37° C.

[3] = cited from earlier work
T98G cells [4] = experiment: cells; format: cell-based
Description: FIG. 4. Imidazotetrazines were added to T98G cells with or without 3 h pre-treatment of O6BG (100 μM). IC50 values after 7-day incubation and fold changes between (+/−) O6BG treatments are reported. […] Error is SEM, n≥3. Statistical significance was determined by using a two-sample Student's t-test (two-tailed test, assuming equal variance).

[5] = Assessment of hematological toxicity in vivo; conditions: mice
Description: Assessment of hematological toxicity. […] Both lymphocyte (FIG. 3b) and neutrophil (FIG. 8a) concentrations were decreased in TMZ-treated mice. […] Total WBC, lymphocyte, and neutrophil counts for mice treated with these compounds were equivalent to those of control mice.
Assessment of Hematological Toxicity. Male CD-1 IGS mice (n=4 mice/group) were administered a single dose of 125 mg/kg compound intravenously. Imidazotetrazines were formulated with SBEβCD in sterile water immediately prior to injection. Seven days post-treatment, mice were humanely sacrificed and whole blood was collected for assessment of total white blood cells, lymphocytes, neutrophils, platelets, and red blood cells.

human GBM cell lines = experiment: Viability in panel of human GBM cell lines; format: cell-based
Description: as §1

[6] = Stability in the absence of microsomes (microsomes replaced with PBS); format: physicochemical; conditions: liver microsomes replaced with PBS, percentage remaining relative to t0
Description: (§2) Liver microsome stability.
(§3) Mouse Liver Microsome Stability Assay. A mixture of PBS (pH 7.4), NADPH regenerating system solution A (Corning Life Sciences), and NADPH regenerating system solution B (Corning Life Sciences) was incubated at 37° C. in a shaking incubator for 5 min. Next, compound was added in DMSO (final concentration 50 μM, 0.5% DMSO) before ice-cold mouse liver microsomes (Thermo Fisher, male CD-1 mice, pooled) were added (final protein concentration of 1 mg/mL). An aliquot was immediately removed, quenched with an equal volume of 100 μM internal standard and 0.5% hydrochloric acid in ice-cold acetonitrile, and centrifuged at 13,000 rcf for 3 min. The supernatant was diluted 1:5 in ddH2O and analyzed by LC-MS. The reactions were incubated at 37° C. in a shaking incubator for 2 h. A second aliquot was removed, quenched and diluted as before and analyzed by LC-MS. The ratio of the areas of analyte:internal standard at 2 hours was compared to the ratio at t0 to determine the percentage of compound remaining. Analysis was performed on an Agilent 6230 LC/MS TOF system with a 1.8 μm, 2.1×50 mm Agilent ZORBAX Eclipse Plus C18 column.

[7] = system: Br23c GBM oncosphere cell line; experiment: Cell viability, Alamar Blue, 7-day, Br23c GBM oncosphere line; format: cell-based; conditions: Homo sapiens, 168 h, error SEM, read-out: 7-day IC50 MGMT − Br23C
glioblastoma = conditions: cited from earlier work
[8] = Mouse liver microsome stability assay; format: in vitro ADME
Description: as §2, §3

genomic DNA of U87 cells = experiment: O6-methyldeoxyguanosine quantitation in U87 cells; format: cell-based, human; conditions: 100 or 1000 μM, 8 hours
Description: Novel imidazotetrazines induce alkylation-mediated cancer cell death. […] After 8 hours of incubation with compound, the genomic DNA was isolated, quantified, and hydrolyzed to its constituent deoxyribonucleosides, which were quantitated via LC-MS/MS analysis. […] Further confirmation that the novel compounds remain DNA alkylators was obtained upon pre-treatment with MGMT inhibitor O^6-benzylguanine (O6BG). O6BG is a pseudosubstrate for MGMT that quenches cellular stores of the enzyme, leading to the persistence of O^6-methylguanine DNA adducts.
O^6-Methyldeoxyguanosine Quantitation. U87 cells were plated at 1×10^6 c/w in a 6-well plate before they were treated with compound at the indicated concentration (1% final concentration DMSO). After 8 h incubation, the cells were harvested and pelleted. Genomic DNA was extracted using the DNeasy Blood & Tissue Kit (Qiagen, ID: 69504). DNA was then precipitated using the following procedure: 1/10 v/v 3M sodium acetate (pH 5.2) and 2.5× v/v ethanol was added to each sample which was then kept at −80° C. for 1 h. […] The concentration of DNA in each sample was quantified measuring absorbance on a NanoDrop 2000 UV-Vis Spectrophotometer (Thermo Fisher). […] Hydrolyzed samples were then submitted for LC-MS/MS quantitation. Samples were analyzed with a 5500 QTRAP LC/MS/MS system (AB Sciex) with a 1200 series HPLC system (Agilent).

[9] = Table 1a, 7 days, n ≥ 3, read-out: IC50 U87
[10] = Table 1a, 7 days, read-out: IC50 D54
[11] = Table 1a, 7 days, read-out: IC50 T98G

For `Cc1ncn2c(=O)n(C)nnc12` [Compound 14, 3,8-dimethylimidazo[5,1-d][1,2,3,5]tetrazin-4(3H)-one], the IC50 (U87 cells; [9]) was 3 ± 1 µM, the IC50 (D54 cells; [10]) was 6 ± 3 µM and the IC50 (T98G cells [1]; [11]) was 6 ± 1 µM. The “effect on survival in words” value [2] was “no effect” and the half-life (physchem) was 40 h.

For `Cn1nnc2c(C(N)=O)ncn2c1=O` [TMZ, temozolomide, reference compound], the “cerebral spinal fluid concentrations as percent of those in the plasma” value ([3]; humans) is given as 20%, the half-life ([3]; in vivo and in aqueous solutions in vitro) is given as about 2 h and the IC50 (U87 cells; [9]) is given as 51 ± 8 µM. For the same compound, the IC50 (U87 cells; Table 1b, read-out: 7-day IC50 U87) was 51 ± 8 µM, the IC50 (D54 cells; [10]) was 12 ± 1 µM and the IC50 (D54 cells; Table 1b, read-out: 7-day IC50 D54) was 12 ± 1 µM. The IC50 (T98G cells [4]; Homo sapiens, 168 h, without O6BG, 7-day incubation) was 660 ± 10 µM, the “enhancement in cytotoxicity after O6BG pre-incubation” value (T98G cells [4]; O6BG 100 μM) was “eight-fold” and the “Cohort weight 7 days Post” value ([5]; 7 days after single IV dose of 125 mg/kg, error SEM, 4 mice) was 32 ± 1 g. The “Cohort weight Pre-treatment” value ([5]; prior to single IV dose of 125 mg/kg, error SEM, 4 mice) was 31 ± 1 g, the “myelosuppression / white blood cell effect” value ([5]; single IV dose 125 mg/kg, complete blood count after 7 days) was “white blood cell (WBC) depletion” and the IC50 (human GBM cell lines; GBM cell lines with negligible MGMT expression, read-out: IC50 in cell lines with negligible MGMT expression) was at most 50 µM. The IC50 (human GBM cell lines; GBM cell lines with significant MGMT expression, read-out: IC50 in cell lines with significant MGMT expression) was over 300 µM, the “Stability (2 h, No Microsomes)” value [6] was 86 ± 4% and the IC50 (T98G cells [1]; [11]) was 660 ± 10 µM. For the same compound, the IC50 (T98G cells [1]; Table 1b, read-out: 7-day IC50 T98G) was 660 ± 10 µM, the IC50 [7] was 5.2 ± 0.2 µM and the “effect on survival in words” value [2] was “significantly increased median survival compared with vehicle”. For the same compound, the “myelotoxicity incidence in treated patients” value (glioblastoma; TMZ-treated patients) was about 20%, the median survival (glioblastoma; patients whose tumors do not express MGMT) was “approximately two” and the “Stability (2 h, Microsomes)” value ([8]; 2 h, percentage remaining relative to t0, error SEM, n ≥ 2) was 87 ± 6%. For the same compound, the “metabolic stability in words” value ([8]; mouse liver microsomes, 2 hours) was “insensitive to metabolic perturbation” and the “concentration of O6-methylated deoxyguanosine” value (genomic DNA of U87 cells) was “Dose dependent increases”.

Source: US12234240B2, “Substituted imidazo[5,1-d][1,2,3,5]tetrazines for the treatment of cancer” (The Board of Trustees of the University of Illinois, priority 2018, dated 2025)
